Key:
[1] = Spatial drug imaging by MALDI-MSI (drug distribution in tissues); details: 10 mg/kg, 30'; DHB matrix; 12 µm-thick sections, MALDI MSI 12 Tesla FT-ICR, 100 µm spatial resolution; Agar Lab
PI3K pathway = test system: PI3K pathway; parameters: method as in Wen et al. 2019b; details: ref Wen et al. 2019b, cited from earlier work
[2] = parameters: method as in Mittapalli et al. 2013; details: ref Mittapalli et al. 2013; cited from earlier work
CNS metastases = test system: CNS metastases; parameters: method as in Long et al. 2012, Ng et al. 2022; details: ref Long et al. 2012, Ng et al. 2022; cited from earlier work
glioblastoma = test system: glioblastoma; parameters: method as in Iorgulescu et al. 2021; details: preclinical studies, ref Iorgulescu et al. 2021; cited from earlier work
[3] = cited from earlier work
[4] = cited from earlier work; remark: listed apart in the source
recurrent glioblastoma = details: cited from earlier work
[5] = test system: newly diagnosed glioblastoma; parameters: method as in Gilbert et al. 2014; details: patients with newly diagnosed glioblastoma; ref Gilbert et al. 2014; cited from earlier work

## CNCc1ccc(-c2[nH]c3cc(F)cc4c3c2CCNC4=O)cc1 [Rucaparib]
[1]
  Drug detection on brain by MALDI or LESA: Drug not detected on brain by MALDI or LESA

## Nc1cc(C(F)(F)F)c(-c2cc(N3CCOCC3)nc(N3CCOCC3)n2)cn1 [buparlisib]
PI3K pathway; pharmacokinetic measures paired with molecular response
  inhibition of the PI3K pathway (molecular response): not potent enough to effectively inhibit the PI3K pathway
PI3K pathway
  unbound tumor-to-plasma ratio: high

## CC(C)(C)c1nc(-c2cccc(NS(=O)(=O)c3c(F)cccc3F)c2F)c(-c2ccnc(N)n2)s1 [dabrafenib]
[2]
  distribution across an intact BBB: limited distribution across an intact BBB
CNS metastases
  response in patients with CNS metastases: clinically significant response rates

## C[C@@H]1C[C@H]2[C@@H]3CCC4=CC(=O)C=C[C@]4(C)[C@@]3(F)[C@@H](O)C[C@]2(C)[C@@]1(O)C(=O)CO [dexamethasone]
glioblastoma
  effect on clinical benefit of immune checkpoint blockade: limit the clinical benefit of immune checkpoint blockade in glioblastoma in a dose-dependent manner

## CN(Cc1cnc2nc(N)nc(N)c2n1)c1ccc(C(=O)N[C@@H](CCC(=O)O)C(=O)O)cc1 [methotrexate]
[3]; intrathecal treatment of hematological malignancies, ref Kwong et al. 2009, Clement & Holle 2017
  therapeutic window, intrathecal treatment: narrow therapeutic window

## S=P(N1CC1)(N1CC1)N1CC1 [thiotepa]
[4]; blood vs cerebrospinal fluid, ref Heideman et al. 1989, 1993
  Kp,uu (unbound drug levels in blood and cerebrospinal fluid): ~ 1
[4]; rapidly metabolized, ref Heideman et al. 1989, 1993
  half-life: less than 2 hours
[4]; ref Dunkel et al. 1998
  dose-limiting toxicity: myelosuppression
[4]; ref Heideman et al. 1989, 1993
  apparent brain permeability (Papp): high

## CC[C@]1(O)C[C@H]2CN(CCc3c([nH]c4ccccc34)[C@@](C(=O)OC)(c3cc4c(cc3OC)N(C=O)[C@H]3[C@@](O)(C(=O)OC)[C@H](OC(C)=O)[C@]5(CC)C=CCN6CC[C@]43[C@@H]65)C2)C1 [vincristine]
[3]; ref Dyer 2001, Chotsampancharoen et al. 2016
  toxicity of inadvertent administration into the CSF: fatalities due to severe neurotoxicity

## bevacizumab
Recurrent glioblastoma; in vivo
  delivery of radiolabeled temozolomide as measured by PET imaging: decreased delivery of radiolabeled temozolomide
Recurrent glioblastoma; not told
  vascular permeability: decrease vascular permeability
[5]
  overall survival: no difference
